Blank lines part the entries; values can stand above or below the molecule they belong to.
Assays:
[1] = biological target: Calcium/calmodulin-dependent protein kinase kinase 2 (Homo sapiens) (UniProt Q96RR4); experiment: Selectivity interaction (Kinase panel (DSF assay)) EUB0001558a CAMKK2
[2] = biological target: T1, Peripheral plasma membrane protein CASK (Homo sapiens) (UniProt O14936); experiment: Selectivity interaction (KinomeScan (DiscoverX)) EUB0000045b CASK
T1 sequence (whole entry): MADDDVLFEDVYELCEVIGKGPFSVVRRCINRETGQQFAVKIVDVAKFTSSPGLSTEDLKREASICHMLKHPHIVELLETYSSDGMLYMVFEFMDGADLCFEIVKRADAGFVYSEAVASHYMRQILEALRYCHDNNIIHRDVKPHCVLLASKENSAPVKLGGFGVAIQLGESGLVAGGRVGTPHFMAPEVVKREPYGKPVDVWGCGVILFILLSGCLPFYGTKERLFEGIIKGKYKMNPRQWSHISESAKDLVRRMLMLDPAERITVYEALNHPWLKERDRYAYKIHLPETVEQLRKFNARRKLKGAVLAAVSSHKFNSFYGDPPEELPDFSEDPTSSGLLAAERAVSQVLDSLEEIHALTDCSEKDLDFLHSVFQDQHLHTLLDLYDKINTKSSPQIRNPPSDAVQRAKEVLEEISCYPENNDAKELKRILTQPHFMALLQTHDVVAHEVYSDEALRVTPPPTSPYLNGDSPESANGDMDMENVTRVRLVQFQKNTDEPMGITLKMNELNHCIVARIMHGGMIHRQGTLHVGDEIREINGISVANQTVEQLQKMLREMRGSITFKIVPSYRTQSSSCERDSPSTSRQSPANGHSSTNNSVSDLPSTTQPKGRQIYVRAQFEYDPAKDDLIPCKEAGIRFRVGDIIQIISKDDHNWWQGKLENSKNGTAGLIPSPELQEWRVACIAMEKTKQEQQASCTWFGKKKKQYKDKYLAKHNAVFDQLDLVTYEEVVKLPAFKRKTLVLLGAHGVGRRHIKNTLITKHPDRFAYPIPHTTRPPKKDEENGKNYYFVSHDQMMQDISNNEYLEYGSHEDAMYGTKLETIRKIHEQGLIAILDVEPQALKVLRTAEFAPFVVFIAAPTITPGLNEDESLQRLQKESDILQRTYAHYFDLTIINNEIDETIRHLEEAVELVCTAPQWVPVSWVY

[3] = biological target: T2, Serine/threonine-protein kinase D3 (Homo sapiens) (UniProt O94806); experiment: Selectivity interaction (ActivX KiNativ screen (kinase selectivity in THP-1 cell lysates)) EUB0000639a PRKD3; type: subcellular; conditions: lysate
T2 sequence (whole entry): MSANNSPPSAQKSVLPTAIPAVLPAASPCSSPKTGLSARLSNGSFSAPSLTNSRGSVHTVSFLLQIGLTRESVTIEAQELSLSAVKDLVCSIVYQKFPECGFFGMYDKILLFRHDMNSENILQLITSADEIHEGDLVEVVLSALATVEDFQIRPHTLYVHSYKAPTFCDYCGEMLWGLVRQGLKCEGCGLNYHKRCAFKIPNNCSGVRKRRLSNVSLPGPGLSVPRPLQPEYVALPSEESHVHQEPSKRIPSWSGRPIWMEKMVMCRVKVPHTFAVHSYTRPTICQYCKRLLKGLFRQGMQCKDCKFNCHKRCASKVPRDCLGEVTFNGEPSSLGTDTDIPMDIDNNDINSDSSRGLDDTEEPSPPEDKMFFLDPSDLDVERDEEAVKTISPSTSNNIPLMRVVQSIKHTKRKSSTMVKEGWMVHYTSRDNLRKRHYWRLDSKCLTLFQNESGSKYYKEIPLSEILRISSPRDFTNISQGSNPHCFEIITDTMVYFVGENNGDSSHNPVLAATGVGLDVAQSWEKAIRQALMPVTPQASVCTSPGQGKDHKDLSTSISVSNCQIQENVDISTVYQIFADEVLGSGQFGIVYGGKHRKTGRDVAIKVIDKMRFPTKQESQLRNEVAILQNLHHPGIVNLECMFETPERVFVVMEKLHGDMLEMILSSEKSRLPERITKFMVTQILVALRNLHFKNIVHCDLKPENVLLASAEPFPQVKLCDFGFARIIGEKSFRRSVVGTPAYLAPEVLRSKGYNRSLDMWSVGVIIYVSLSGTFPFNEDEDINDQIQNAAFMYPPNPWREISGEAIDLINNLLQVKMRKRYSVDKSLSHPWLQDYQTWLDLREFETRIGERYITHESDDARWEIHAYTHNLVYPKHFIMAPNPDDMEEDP

[4] = biological target: Calcium/calmodulin-dependent protein kinase kinase 2 (Homo sapiens) (UniProt Q96RR4); experiment: Selectivity interaction (KinomeScan (DiscoverX)) EUB0000092b CAMKK2; conditions: at 10 µM

Sequence of Calcium/calmodulin-dependent protein kinase kinase 2 (Homo sapiens) (Q96RR4 2-588 limits assumed): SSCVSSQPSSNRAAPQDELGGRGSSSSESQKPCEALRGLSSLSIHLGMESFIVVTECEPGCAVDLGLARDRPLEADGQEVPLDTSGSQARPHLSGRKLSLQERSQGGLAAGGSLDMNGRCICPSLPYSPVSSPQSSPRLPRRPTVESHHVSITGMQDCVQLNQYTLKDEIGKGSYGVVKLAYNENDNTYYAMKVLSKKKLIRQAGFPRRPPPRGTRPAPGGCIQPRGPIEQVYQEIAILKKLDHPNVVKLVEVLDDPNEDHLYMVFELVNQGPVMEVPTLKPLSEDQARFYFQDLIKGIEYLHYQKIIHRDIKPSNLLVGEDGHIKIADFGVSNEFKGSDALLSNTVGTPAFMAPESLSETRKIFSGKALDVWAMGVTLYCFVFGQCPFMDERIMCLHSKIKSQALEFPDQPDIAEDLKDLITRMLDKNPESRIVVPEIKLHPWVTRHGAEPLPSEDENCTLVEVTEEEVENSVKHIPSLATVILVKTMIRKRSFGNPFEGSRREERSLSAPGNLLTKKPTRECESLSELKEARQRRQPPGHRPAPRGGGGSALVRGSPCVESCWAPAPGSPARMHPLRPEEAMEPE

Structure (SMILES): CC(C)(O)[C@H](F)CN1Cc2cc(NC(=O)c3cnn4cccnc34)c(N3CCOCC3)cc2C1=O
dTM [1]: 4.3 K

Structure (SMILES): C=CC(=O)Nc1cc(-n2c(=O)ccc3cnc4ccc(-c5ccc(NS(C)(=O)=O)cc5)cc4c32)ccc1C
% of control ([2]; at 1 µM): 61%
% of control ([2]; at 10 µM): 100%

% of inhibition ([3]; at 0.01 µM): -8.3%
% of inhibition ([3]; at 0.04 µM): -5.9%
% of inhibition ([3]; at 0.2 µM): -13.7%
% of inhibition ([3]; at 1 µM): 3.6%
% of inhibition ([3]; at 5 µM): -22.1%
Structure (SMILES): CC[C@@H]1[C@H](F)C(=O)N[C@@H]1COc1nccc2cc(C(N)=O)c(OC)cc12 [ZIMLOVISERTIB]

Structure (SMILES): CCC(=O)N1CCN(c2ccc(-n3c(=O)ccc4cnc5ccc(-c6cnc7ccccc7c6)cc5c43)cc2C(F)(F)F)CC1
% of control [4]: 85%

Reference: ChEMBL document CHEMBL5465560, “Selectivity Literature for EUbOPEN Chemogenomic Library” (2024)
